From doi:10.1101/2025.11.04.686469, “Discovery of Host-Directed Small Molecules with Broad Anti-Leishmanial Efficacy” (bioRxiv, 2025)
pIC50: −log10 of the molar value.

Tests used:
THP-1 macrophages = test: Effect of compounds on host cell viability (MTT); type: cell-based; conditions: read-out: 24h LC50; THP1 macrophages, 24-hour incubation, MTT assay (Supplemental Table 2)
Protocol: The cells were cultured at 37C, 5% CO2 in RPMI medium (ATCC) supplemented with 10% FBS, 1% Penicillin/Streptomycin and 0.05 mM of β-mercaptoethanol. Cells were used in experiments up to passage 10.
Effect of the compounds on THP-1 cell viability measured using thiazolyl blue tetrazolium bromide which measures cell metabolic activity (MTT). THP-1 cells were seeded in a 96 well plate (25,000 cells/well) overnight then differentiated with 150 nM phorbol 12-myristate 13-acetate (PMA) over 72 hours. Macrophages were then treated with compounds resuspended in RPMI media (1- 50 μM) for 24 hours. Media was replaced with thiazolyl blue tetrazolium bromide solubilized in RPMI media (0.5 mg/mL) and incubated at 37°C for 2 hours. The reduced formazan crystals were solubilized with isopropyl alcohol and the absorbance of the resulting solution was measured at 560 nm with a background subtraction at 670 nm. […] This process was repeated with a 72-hr incubation and extended concentration range (1 - 300 μM) for select compounds.

[1] = tested on: intracellular L. donovani amastigotes; test: Luminescent-based evaluation of intracellular anti-leishmanial activity in THP-1 macrophages; type: cell-based, Leishmania donovani; conditions: intracellular Leishmania donovani in THP1 macrophages, luminescence assay (Supplemental Table 2); read-out: Lum IC50
Protocol: Luminescent strains, L. donovani LV82 expressing firefly luciferase (a kind gift from Dr. Abhay Satoskar, Ohio State University) and L. mexicana (NR-51210, ATCC) expressing renilla luciferase were used to evaluate the effect of the compounds in intracellular and extracellular conditions. Wild-type L. donovani LV82 (ATCC) were used for Giemsa staining based experiments. All parasites were cultured at 25°C and 5% CO2 in M199 media (Corning) supplemented with 10% FBS, 1% penicillin/streptomycin, and hemin (0.01 mg/mL), and used in experiments up to passage 15.
THP-1 cells were seeded in a 96 well plate (25,000 cells/well) overnight then differentiated with 150 nM phorbol 12-myristate 13-acetate (PMA) over 72 hours (Supplemental Figure 1). […] Briefly, promastigotes of a known cell density were resuspended in RPMI media (with 10% FBS, 1% P/S and 0.05 mM β-mercaptoethanol) and incubated with adhered THP-1 cells over 18 hours. After infection, cells were washed three times with fresh media to remove extracellular promastigotes.
Infected macrophages were then treated with compounds solubilized in DMSO ranging from 0.1-10 μM in concentrations. After 72 hours of treatment, the viability of the amastigotes within macrophages was determined using Promega firefly luminescence assay (Cat E1500) or Pierce Renilla luciferase assay (Cat 16166) for L. donovani and L. mexicana strains, respectively. Briefly, media was removed, and cells were lysed with the assay lysis buffer. The luciferase substrate was then incubated with the lysed cells for 10 min at room temperature and luminescence of live Leishmania was measured in a white opaque 96 well plate using a Biotek plate reader.

SMILES | CC50 (THP-1 macrophages) [µM] | pIC50 [1]
COc1ccc(-n2cc(C(F)(F)F)nc2-c2ccc(-c3ccccc3)cc2)cc1 [Compound 245] | > 50 | < 5.00
FC(F)(F)c1ccc(-c2ccc(-c3nc(C(F)(F)F)cn3-c3ccc(N4CCNCC4)cc3)cc2)cc1 [Compound 74] | 6.5 | 5.55
N#Cc1ccc(-n2cc(C(F)(F)F)nc2-c2ccc(-c3ccccc3)cc2)cc1 [Compound 180] | > 50 | < 5.00
FC(F)(F)c1ccc(-c2ccc(-c3cc(C(F)(F)F)nn3-c3ccc(OC4CCNCC4)cc3)cc2)cc1 [Compound 34] | > 50 | 5.22
Nc1ccc(-n2cc(C(F)(F)F)nc2-c2ccc(Br)cc2)cc1 [Compound 193] | > 50 | < 5.00
FC(F)(F)c1ccc(-c2cnnn2-c2ccc(Br)cc2)cc1 [Compound 131] | 37.2 | < 5.00
FC(F)(F)c1cc(C2CCCCC2)nn1-c1ccc(Br)cc1 [Compound 216] | > 50 | < 5.00
FC(F)(F)c1ccc(-c2ccc(-c3cc(C(F)(F)F)nn3-c3ccc(N4CCNCC4)cc3)cc2)cc1 [Compound 208] | 31 | 5.24
FC(F)(F)c1cn(-c2ccc(N3CCNCC3)cc2)c(-c2ccc(Cl)cc2)n1 [Compound 51] | 25.7 | 5.09
NC1CCN(c2ccc(-n3nc(C(F)F)cc3-c3ccc(-c4ccc(C(F)(F)F)cc4)cc3)cc2)C1 (stereo not shown) [Compound 281] | 14.3 | 5.70
NCC(=O)Nc1ccc(-n2cc(C(F)(F)F)nc2-c2ccc(C(F)(F)F)cc2)cc1 [Compound 409] | 35.2 | 5.06
NC1CCN(c2ccc(-n3nc(C(F)(F)F)cc3-c3ccc(F)cc3)cc2)C1 (stereo not shown) [Compound 248] | 14.4 | 5.59
NCCN1CCC(Oc2ccc(-n3nc(C(F)(F)F)cc3C3CCCCC3)cc2)CC1 [Compound 416] | 18.2 | 5.89
O=S(=O)(c1ccc(-n2cc(C(F)(F)F)nc2-c2ccc(-c3ccc(C(F)(F)F)cc3)cc2)cc1)C(F)(F)F [Compound 244] | > 50 | < 5.00
NCCOCCN1CCC(Oc2ccc(-n3nc(C(F)(F)F)cc3C3CCCCC3)cc2)CC1 [Compound 423] | 3.4 | 5.22
CNS(=O)(=O)Cc1ccc(-n2nc(C(F)(F)F)cc2-c2ccc(-c3ccc(C(F)(F)F)cc3)cc2)cc1 [Compound 191] | 12 | < 5.00
FC(F)(F)Oc1ccc(-n2cc(C(F)(F)F)nc2-c2ccc(-c3ccccc3)cc2)cc1 [Compound 183] | > 50 | < 5.00
CC(=O)c1ccc(-n2cc(C(F)(F)F)nc2-c2ccc(-c3ccccc3)cc2)cc1 [Compound 184] | > 50 | 5.30
CC(C)C#Cc1ccc(-c2cc(C(F)(F)F)nn2-c2ccc(N3CCNCC3)cc2)cc1 [Compound 45] | 3.2 | 5.43
Nc1ccc(-n2cc(C(F)(F)F)nc2-c2ccc(-c3ccc(C(F)(F)F)cc3)cc2)cc1 [Compound 76] |  | < 5.00
NCC(=O)Nc1ccc(-n2cc(C(F)(F)F)nc2-c2ccc(OC(F)(F)F)cc2)cc1 [Compound 299] | 31.6 | 
Fc1ccccc1CNC1CCN(c2ccc(-n3nc(C(F)(F)F)cc3-c3ccc(-c4ccc(C(F)(F)F)cc4)cc3)cc2)C1 (stereo not shown) [Compound 21] | > 50 | 
FC(F)(F)c1ccc(-c2ccc(-c3cc(C(F)(F)F)nn3-c3ccc(N4CCC(NCc5cccc(Cl)c5Cl)C4)cc3)cc2)cc1 (stereo not shown) [Compound 13] | > 50 | 
NCC(=O)Nc1ccc(-n2cc(C(F)(F)F)nc2C2CCCCC2)cc1 [Compound 327] | > 50 | 
CCCCNc1ccc(-n2nc(C(F)(F)F)cc2-c2ccc(-c3ccc(C(F)(F)F)cc3)cc2)cc1 [Compound 57] | > 50 | 
CC(C)(C)OC(=O)N1CC(Nc2ccc(-n3nc(C(F)(F)F)cc3-c3ccc(-c4ccc(C(F)(F)F)cc4)cc3)cc2)C1 [Compound 56] | > 50 | 

SMILES | CC50 (THP-1 macrophages) [µM] | pIC50 [1]
O=C(OCc1ccccc1)N1CCC(Nc2ccc(-n3nc(C(F)(F)F)cc3-c3ccc(-c4ccc(C(F)(F)F)cc4)cc3)cc2)C1 (stereo not shown) [Compound 6] | > 50 | 
Nc1ccc(-n2nc(C(F)(F)F)cc2-c2ccc(Br)cc2)cc1 [Compound 40] | > 50 | 
Fc1cccc(CN2CCC(Oc3ccc(-n4nc(C(F)(F)F)cc4C4CCCCC4)cc3)C2)c1 (stereo not shown) [Compound 376] | > 50 | 
N#Cc1ccc(COC2CCN(c3ccc(-n4nc(C(F)(F)F)cc4C4CCCCC4)cc3)C2)cc1 (stereo not shown) [Compound 413] | > 50 | 
FC(F)(F)c1ccc(-c2nc(C(F)(F)F)cn2CC2CCNC2)cc1 (stereo not shown) [Compound 292] | > 50 | 
CC(C)(C)OC(=O)N1CCC(Nc2ccc(-n3nc(C(F)(F)F)cc3-c3ccccc3C(F)(F)F)cc2)C1 (stereo not shown) [Compound 259] | 23.6 | 
O=C(c1ccc(F)cc1)N1CCC(Nc2ccc(-n3nc(C(F)(F)F)cc3-c3ccc(-c4ccc(C(F)(F)F)cc4)cc3)cc2)C1 (stereo not shown) [Compound 59] | > 50 | 
Fc1cccc(COC2CCN(c3ccc(-n4nc(C(F)(F)F)cc4C4CCCCC4)cc3)C2)c1 (stereo not shown) [Compound 415] | > 50 | 
O=[N+]([O-])c1ccc(-n2cc(C(F)(F)F)nc2-c2ccc(-c3ccccc3)cc2)cc1 [Compound 32] | 6.3 | 
CC(=O)NCCN1CCC(Oc2ccc(-n3nc(C(F)(F)F)cc3C3CCCCC3)cc2)CC1 [Compound 417] | 24.4 | 
COc1ccc(-n2nc(C(F)(F)F)cc2C2CCCCC2)cc1 [Compound 363] | > 50 | 
CC(C)C#Cc1ccc(-c2cc(C(F)(F)F)nn2-c2ccc(N3CCC(NCc4ccc(O)cc4)C3)cc2)cc1 (stereo not shown) [Compound 101] | 0.5 | 
FC(F)(F)c1cc(-c2ccc(-c3ccc(S(F)(F)(F)(F)F)cc3)cc2)n(-c2ccc(N3CCNCC3)cc2)n1 [Compound 46] | 10 | 
Fc1cccc(CNC2CCN(c3ccc(-n4nc(C(F)(F)F)cc4C4CCCCC4)cc3)C2)c1 (stereo not shown) [Compound 285] | > 50 | 
CC(C)(C)c1nc(C(F)(F)F)cn1-c1ccc(Br)cc1 [Compound 329] | > 50 | 
Nc1ccc(-n2cc(C(F)(F)F)nc2-c2ccc(-c3ccccc3)cc2)cc1 [Compound 33] | 1.5 | 
FC(F)(F)c1ccc(-c2ccc(-c3cc(C(F)(F)F)nn3-c3ccc(NC4CCN(Cc5cccc(Cl)c5Cl)C4)cc3)cc2)cc1 (stereo not shown) [Compound 52] | > 50 | 
COc1ccc(-n2nc(C(F)(F)F)cc2-c2ccc(-c3ccc(C(F)(F)F)cc3)cc2)cc1 [Compound 26] | 5.8 | 
FC(F)(F)c1ccc(-c2ccc(-c3cc(C(F)(F)F)nn3-c3ccc(N4CCC(NCc5ccccc5)C4)cc3)cc2)cc1 (stereo not shown) [Compound 16] | > 50 | 
CC(C)(C)OC(=O)N1CCN(c2ccc(-n3nc(C(F)(F)F)cc3-c3ccc(Br)cc3)cc2)CC1 [Compound 41] | > 50 | 
O=[N+]([O-])c1ccc(-n2nc(C(F)(F)F)cc2-c2ccc(Br)cc2)cc1 [Compound 37] | > 50 | 
CCCCCCNc1ccc(-n2nc(C(F)(F)F)cc2-c2ccc(-c3ccc(C(F)(F)F)cc3)cc2)cc1 [Compound 60] | > 50 | 
Cc1cc(C(F)(F)F)nn1-c1ccc(Br)cc1 [Compound 275] | > 50 | 
N#Cc1ccc(CN2CCC(Nc3ccc(-n4nc(C(F)(F)F)cc4C4CCCCC4)cc3)CC2)cc1 [Compound 389] | > 50 | 
CC(C)(C)OC(=O)N1CCC(Nc2ccc(-n3nc(C(F)(F)F)cc3-c3ccc(-c4ccc(C(F)(F)F)cc4)cc3)cc2)C1 (stereo not shown) [Compound 15] | > 50 | 
